Results published in PMC4498814, “Genetic Evidence for Function of the bHLH-PAS Protein Gce/Met As a Juvenile Hormone Receptor” (PLoS Genetics, 2015).
Where two headings read alike, the source gives them in different places.

What was measured:
[1] = biological target: T1, Gce (germ cell-expressed) (Drosophila melanogaster, UniProt Q9VXW7); experiment: [3H]JH III radioligand saturation binding, dextran-coated charcoal assay
T1 construct: amino acids 1–689, translated in vitro
T1 sequence (Q9VXW7 269-959): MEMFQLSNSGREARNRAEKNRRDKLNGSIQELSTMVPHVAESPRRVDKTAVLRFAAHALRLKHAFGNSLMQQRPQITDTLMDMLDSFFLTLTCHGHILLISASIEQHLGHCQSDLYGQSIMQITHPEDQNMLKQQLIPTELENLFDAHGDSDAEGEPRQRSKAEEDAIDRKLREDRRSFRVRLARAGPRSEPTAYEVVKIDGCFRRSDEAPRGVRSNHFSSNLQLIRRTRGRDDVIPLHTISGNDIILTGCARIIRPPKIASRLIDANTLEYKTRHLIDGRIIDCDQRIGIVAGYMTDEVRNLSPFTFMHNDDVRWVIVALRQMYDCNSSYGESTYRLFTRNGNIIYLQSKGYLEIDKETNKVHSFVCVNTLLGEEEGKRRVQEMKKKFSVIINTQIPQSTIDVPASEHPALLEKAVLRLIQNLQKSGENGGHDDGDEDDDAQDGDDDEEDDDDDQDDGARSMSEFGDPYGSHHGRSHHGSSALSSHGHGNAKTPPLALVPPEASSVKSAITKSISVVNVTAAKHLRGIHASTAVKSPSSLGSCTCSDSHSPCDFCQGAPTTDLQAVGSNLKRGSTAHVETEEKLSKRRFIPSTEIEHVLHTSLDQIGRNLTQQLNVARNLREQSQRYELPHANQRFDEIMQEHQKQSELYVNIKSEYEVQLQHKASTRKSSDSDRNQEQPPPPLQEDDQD

[2] = biological target: T2, Met (Methoprene-tolerant) (Drosophila melanogaster, UniProt Q9VYW2); experiment: JHRE-luc reporter in S2 cells with endogenous Met and Gce depleted; pocket mutants inactive; assay type: cell-based
T2 construct: amino acids 1–716, FLAG-tagged, expressed in S2 cells
T2 sequence (Q9VYW2 1-716): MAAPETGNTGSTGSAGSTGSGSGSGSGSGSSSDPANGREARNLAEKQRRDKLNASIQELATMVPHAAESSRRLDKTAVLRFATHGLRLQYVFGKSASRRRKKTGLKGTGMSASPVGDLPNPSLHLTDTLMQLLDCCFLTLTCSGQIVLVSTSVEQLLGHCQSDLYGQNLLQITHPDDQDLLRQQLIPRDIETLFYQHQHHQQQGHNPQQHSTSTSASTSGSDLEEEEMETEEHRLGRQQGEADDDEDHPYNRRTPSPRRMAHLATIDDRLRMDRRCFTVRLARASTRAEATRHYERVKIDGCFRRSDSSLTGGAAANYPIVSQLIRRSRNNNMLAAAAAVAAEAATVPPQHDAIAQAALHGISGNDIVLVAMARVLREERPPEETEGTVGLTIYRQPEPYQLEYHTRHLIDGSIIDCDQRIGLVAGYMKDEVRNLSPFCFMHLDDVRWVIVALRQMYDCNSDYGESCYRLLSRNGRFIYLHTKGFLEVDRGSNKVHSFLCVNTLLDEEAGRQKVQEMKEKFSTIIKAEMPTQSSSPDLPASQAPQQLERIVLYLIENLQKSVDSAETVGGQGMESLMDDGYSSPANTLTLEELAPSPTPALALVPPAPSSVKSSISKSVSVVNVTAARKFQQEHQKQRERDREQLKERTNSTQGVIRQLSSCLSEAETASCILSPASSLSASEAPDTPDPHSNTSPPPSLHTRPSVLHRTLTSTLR

[3] = biological target: T1, Gce (germ cell-expressed); experiment: competition radioligand binding against [3H]JH III, dextran-coated charcoal assay

Row | Ki ([3]; read-out: Ki) | SMILES | Ki [3] | other results
1 | – | COC(=O)/C=C(\C)CC/C=C(\C)CCC1OC1(C)C (racemic) [JH III] | – | Kd [1]: 19.3 ± 4.5 nM; JHRE-luc reporter activity [2]: Like Gce, Met but not its mutated versions, mediated induction of JHRE-luc by JH III (Fig 3C)
2 | – | COC(C)(C)CCC[C@H](C)C/C=C/C(C)=C/C(=O)OC(C)C (racemic) [methoprene] | 45.8 ± 28.9 nM | –
3 | 8100 ± 2400 nM | CC(C)=CCC/C(C)=C/CC/C(C)=C/CO [farnesol] | – | –
4 | 87.9 ± 22.2 nM | COC(=O)/C=C(\C)CC/C=C(\C)CCC=C(C)C [methyl farnesoate] | – | –
5 | – | CC(COc1ccc(Oc2ccccc2)cc1)Oc1ccccn1 (stereo not drawn) [pyriproxyfen] | 5.7 ± 2.8 nM | –
